Laboratory results taken from article PMC8328489, “Automated Synthesis and Initial Evaluation of (4′-Amino-5′,8′-difluoro-1′H-spiro[piperidine-4,2′-quinazolin]-1-yl)(4-[^18F]fluorophenyl)methanone for PET/MR Imaging of Inducible Nitric Oxide Synthase” (Molecular Imaging, 2021).

What was measured:
iNOS [1] = target: T1, iNOS (Mus musculus, UniProt P29477); assay: Pharmacokinetic two-compartment modeling of dynamic PET; type: in vivo, C57BL/6 mice; settings: mouse whole brain
T1 construct: tracer to detect iNOS expression in mice injected with lipopolysaccharide (LPS) to induce brain inflammation; from tissue; host or cells: brain of living C57BL/6 mice (LPS-induced); fixed brain sections for IHC
Excerpt: A time activity curve (TAC) for a carotid artery region of interest was used to determine the dynamic PET image-derived [^18F]FBAT input function in uncorrected blood plasma. The corresponding TACs for [^18F]FBAT were derived by applying images from mice administered [^18F]FBAT to the image-derived plasma TAC. Model parameters were estimated for influx constant k1 (mL/cm^3/min^−1), efflux (k2) (min^−1) rate of radioligand diffusion between plasma and brain compartment. Exchange between compartments k3 (min^−1) and k4 (min^−1) was also estimated. The net influx constant, Ki (min^−1), parameter that describes the rate of binding to the iNOS was calculated as (2) KiFBAT=k1FBAT×k3FBAT/k2FBAT+k3FBAT.
Compartmental modeling, pharmacokinetic analyses, and generation of pixel-by-pixel parametric images were accomplished using PMOD 4.0 software (PMOD Technologies Ltd., Zurich, Switzerland).

[2] = Log P measurement (1-octanol/phosphate buffer, UV); type: physicochemical; settings: 1-octanol / 0.02 M phosphate buffer; 1-octanol / phosphate buffer pH 7.4
Procedure: The partition coefficient of FBAT, determined between 1-octanol and 0.02 M phosphate buffer at pH 7.4, was measured by UV spectrophotometer (SPARK 10 M from Tecan) at wavelength 230 nm.

[3] = test system: murine microglial BV2 cells; assay: In vitro [^18F]FBAT uptake assay; type: cell-based
Procedure: BV2 cells were cultured as described above, washed three times with fresh medium, pretreated with a selective iNOS inhibitor, aminoguanidine (AMG), (0, 1, or 0.1 mM) for 1 h, and then treated with cell culture media containing LPS and the inhibitor. At the indicated time points, the cells were washed thrice with fresh cell culture media, then incubated in fresh cell culture media continuing the radiotracer [^18F]FBAT at 0.37 MBq/mL for 15, 30, or 60 min, harvested by gentle scraping, and pelleted by centrifugation at 1500 g for 2 min. The weight of the cell pellet and 0.1 mL of the radioactive supernatant was determined. A Packard 5500 gamma counter (PerkinElmer, Billerica, MA, USA) was used to quantify radioactivity as cpm/g cells or cpm/mL media, respectively. Cell-to-medium radioactivity concentration ratios were calculated and plotted over time to evaluate the kinetics of accumulation of the radiotracer.
iNOS is the enzyme responsible for NO generation in BV2 cells; therefore, accumulation of [^18F]FBAT in BV2 cells before or after iNOS inhibitor versus NO production was also assessed.

iNOS [4] = target: T1, iNOS; assay: Logan graphical analysis of dynamic PET (Vt); type: in vivo, C57BL/6 mice
Procedure: The dynamic PET imaging data were analyzed using Logan's model-independent graphical analysis to assess whether [^18F]FBAT PET/MR could be used to detect differences in expression of iNOS in brain regions (Cbra(t)). Cardiac blood TACs (Cref(t)) were used as the reference tissue. The slope of the linear portion of the Logan plot represents the total distribution (Vt). Then, the slope of the linear portion of the plot can be calculated using (1) ∫0tCreferencetdt/CreferenceT=DVR∫0tCbrain regiontdt/CreferenceT+C.

[5] = Whole-body dynamic PET/MR biodistribution and blood clearance; type: in vivo, C57BL/6 mice
Procedure: Mice (n = 30) were anesthetized with 2% isoflurane (in oxygen) and injected with [^18F]FBAT (11.1 MBq; 0.3 mCi) via the tail vein. Dynamic PET images were obtained in fully three-dimensional list mode for 30 min using a small animal SuperArgus 2r PET system (SEDECAL, Madrid, Spain) or 7T PETMR Inline (Bruker, Rheinstetten, Germany; energy window, 350-650 keV; timing window, 6 ns). Images were acquired every 10 s for 12 images, 60 s for three images, 300 s for three images, or 600 s for […]. The anatomical structure of the brain was imaged using T2 MRI. The MRI sequences included 0.5 mm thick T2 Turbo RARE high-resolution images (TR = 3000 ms, TE, 46 ms, matrix, 512 × 256, average, 40, slice number, 30, field of view, 20 × 10 mm).
Images were reconstructed by the Fourier rebinning algorithm and two-dimensional filtered back projection using a ramp filter with a cutoff at Nyquist. The regional radioactivity concentration (kBq/cc) of [^18F]FBAT was estimated from the mean pixel values within the region of interest (ROI) corresponding to MR images of various organs and regions of the brain. ROI for carotid artery, heart muscle, lung, liver, spleen, and kidney were defined and time activity curves (TACs) generated. TACs for whole brain, cortex, cerebellum, and brainstem were also determined as described above.
The concentration of radioactivity (kBq/cc, μCi/cc) was converted to standardized uptake value (SUV), and the mean and standard deviation (SD) of radiotracer accumulation values were calculated for different organs and regions of the brain. Data were analyzed with PMOD 4.0 software (PMOD Technologies Ltd., Zurich, Switzerland).

NC1=NC2(CCN(C(=O)c3ccc([18F])cc3)CC2)Nc2c(F)ccc(F)c21 [[^18F]FBAT, (4′-amino-5′,8′-difluoro-1′H-spiro[piperidine-4,2′-quinazolin]-1-yl)(4-[^18F]fluorophenyl)methanone]
k1 (influx rate constant) (iNOS [1]; LPS 5 mg/kg): 0.633 ± 0.002 min⁻¹ | k2 (efflux rate constant) (iNOS [1]; LPS 5 mg/kg): 0.608 ± 0.054 min⁻¹ | k3 (iNOS [1]; LPS 5 mg/kg): 0.006 ± 0.003^∗ min^−1 | k1 (influx rate constant) (iNOS [1]; control): 0.957 ± 0.250 min⁻¹ | k2 (efflux rate constant) (iNOS [1]; control): 0.777 ± 0.101 min⁻¹ | k3 (iNOS [1]; control): 2.86E − 05 ± 4.48E − 05 min^−1 | logP [2]: 1.4 | [^18F]FBAT accumulation, LPS-induced vs control BV2 cells ([3]; 60 min): more than 1.7 fold | cells-per-medium concentration ratio at plateau ([3]; LPS-induced BV2 cells, after 1 h): 180–200 | cells-per-medium concentration ratio at plateau ([3]; control BV2 cells): ~100 | volume distribution Vt, brainstem (iNOS [4]; LPS 3 h): 0.435 ± 0.040^∗ mL/cm^3 | volume distribution Vt, cerebellum (iNOS [4]; LPS 3 h): 0.385 ± 0.016^∗∗ mL/cm^3 | volume distribution Vt, cortex (iNOS [4]; LPS 3 h): 0.391 ± 0.020^∗ mL/cm^3 | volume distribution Vt, whole brain (iNOS [4]; LPS 3 h): 0.404 ± 0.003 mL/cm^3 | volume distribution Vt, brainstem (iNOS [4]; LPS 3 h + AMG): 0.223 ± 0.036 mL/cm^3 | volume distribution Vt, cerebellum (iNOS [4]; LPS 3 h + AMG): 0.250 ± 0.055 mL/cm^3 | volume distribution Vt, cortex (iNOS [4]; LPS 3 h + AMG): 0.222 ± 0.024 mL/cm^3 | volume distribution Vt, whole brain (iNOS [4]; LPS 3 h + AMG): 0.203 ± 0.032 mL/cm^3 | volume distribution Vt, brainstem (iNOS [4]; LPS 24 h): 0.315 ± 0.065 mL/cm^3 | volume distribution Vt, cerebellum (iNOS [4]; LPS 24 h): 0.288 ± 0.090 mL/cm^3 | volume distribution Vt, cortex (iNOS [4]; LPS 24 h): 0.264 ± 0.036^∗ mL/cm^3 | volume distribution Vt, whole brain (iNOS [4]; LPS 24 h): 0.274 ± 0.068 mL/cm^3 | average volume distribution Vt in brain regions (iNOS [4]; LPS group (implied), blood as reference tissue): 0.40 ± 0.02 mL/cm^3 | Vt in the brain regions (iNOS [4]; control animals): 0.29 ± 0.05 mL/cm^3 | volume distribution Vt, brainstem (iNOS [4]; control mice): 0.295 ± 0.026 mL/cm^3 | volume distribution Vt, cerebellum (iNOS [4]; control mice): 0.227 ± 0.001 mL/cm^3 | volume distribution Vt, cortex (iNOS [4]; control mice): 0.278 ± 0.006 mL/cm^3 | volume distribution Vt, whole brain (iNOS [4]; control mice): 0.346 ± 0.012 mL/cm^3 | Vt, 3 h LPS group vs control group (iNOS [4]; whole brain, average): 1.4 ± 0.22 fold | level of [^18F]FBAT in blood (carotid ROI) ([5]; 30 min post i.v. injection, brain imaging study): 0.30 ± 0.06 SUV | radioactivity remaining in the blood pool ([5]; 30 min postinjection, whole-body biodistribution study): 0.298 ± 0.019 SUV | time of peak radioactivity in heart muscle ([5]; after injection): ≤ 1 min | blood clearance half-life, first phase (biexponential) ([5]; carotid, i.v.): 1.05 ± 0.58 min | blood clearance half-life, second phase (biexponential) ([5]; carotid, i.v.): 24.9 ± 7.46 min | time of peak accumulation in the lungs ([5]; postinjection): 1 to 2 min | accumulation of radioactivity in skeletal structures ([5]; up to 30 min postinjection): No accumulation
